Several values for one entry are separate records, joined by “and”; a condition that tells them apart may be missing. Equal entries are not always repeated. Where two headings read alike, the source gives them in different places.
Experiments:
[1] = molecular target: T1, HGXPRT (Trypanosoma brucei brucei, UniProt Q38CA1); test: Inhibition studies, Ki for recombinant HGXPRT (spectrophotometric assay); assay type: biochemical; conditions: 0.1 M Tris pH 8.4, 0.11 M MgCl2, 25°C, parent ANP
Description: (§1) The concentration of enzyme in the assay (varied from 75–200 μg/ml for the two enzymes) and the concentration of PRib-PP was kept at 1 mM. The reaction was carried out using a 1.0 cm path length with a UV Visible spectrometer 1601 (Shimadzu) in the reaction buffer (0.1 M Tris, pH 8.4; 0.11 M MgCl2; at 25°C).
(§2) The concentrations of inhibitors in the assay ranged from 1 nM to 100 μM, depending on the steady-state kinetics of the respective enzyme at that concentration of inhibitor. The reaction was preceded by 1 minute incubation of the respective enzyme with the given inhibitor. The Ki values were calculated using non-linear regression in GraphPad Prism5.

[2] = molecular target: T2, HGPRT-I (Trypanosoma brucei brucei, UniProt Q07010); test: Inhibition studies, Ki for recombinant HGPRT-I (spectrophotometric assay); assay type: biochemical; conditions: 0.1 M Tris pH 8.4, 0.11 M MgCl2, 25°C, parent ANP
T2 construct: 6x His-tag (N); AcTEV cleavage site (N); made in house; host or cells: E. coli One Shot BL21(DE3)
T2 sequence (Q07010 2-210 limits assumed): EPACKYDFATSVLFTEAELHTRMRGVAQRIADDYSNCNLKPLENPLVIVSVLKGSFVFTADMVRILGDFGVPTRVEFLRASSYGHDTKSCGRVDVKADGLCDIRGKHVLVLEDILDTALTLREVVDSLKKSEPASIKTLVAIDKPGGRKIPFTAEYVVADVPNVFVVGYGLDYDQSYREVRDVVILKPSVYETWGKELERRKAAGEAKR
Description: as §1, §2

[3] = molecular target: T3, HGPRT-II (Trypanosoma brucei brucei, UniProt Q38C93); test: Inhibition studies, Ki for recombinant HGPRT-II (spectrophotometric assay); assay type: biochemical
T3 sequence (Q38C93 entry or part of it): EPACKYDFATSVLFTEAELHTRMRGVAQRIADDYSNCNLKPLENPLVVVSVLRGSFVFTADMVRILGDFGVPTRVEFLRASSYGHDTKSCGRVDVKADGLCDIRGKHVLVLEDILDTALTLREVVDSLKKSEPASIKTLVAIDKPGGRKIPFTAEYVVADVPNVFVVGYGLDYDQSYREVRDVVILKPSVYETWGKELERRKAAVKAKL
Description: as §1, §2

[4] = molecular target: T3, HGPRT-II; test: Steady-state kinetic constants of 6-oxopurine bases for HGPRT-II; assay type: biochemical; conditions: PRib-PP 1 mM, pH 8.4, 25°C
Description: as §1

[5] = molecular target: T2, HGPRT-I; test: Steady-state kinetic constants of 6-oxopurine bases for HGPRT-I; assay type: biochemical; conditions: PRib-PP 1 mM, pH 8.4, 25°C
Description: as §1

[6] = molecular target: T1, HGXPRT; test: Steady-state kinetic constants of 6-oxopurine bases for HGXPRT; conditions: PRib-PP 1 mM, pH 8.4, 25°C
Description: as §1

[7] = 0.1 M Tris pH 8.4, 0.11 M MgCl2, 25°C, parent ANP

T1 sequence (Q38CA1 entry or part of it): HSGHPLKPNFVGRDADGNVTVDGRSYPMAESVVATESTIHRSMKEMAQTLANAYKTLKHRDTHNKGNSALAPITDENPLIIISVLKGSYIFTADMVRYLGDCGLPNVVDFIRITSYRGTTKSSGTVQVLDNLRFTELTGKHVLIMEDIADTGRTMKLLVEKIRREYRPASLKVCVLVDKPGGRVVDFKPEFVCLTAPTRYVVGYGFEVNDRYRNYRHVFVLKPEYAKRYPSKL

For `O=c1[nH]cnc2c1ncn2CCN(CCOCP(=O)(O)O)CCP(=O)(O)O` [compound 3], the Ki ([1]; read-out: HGXPRT Ki) was 380 nM and < 1000 nM, the Ki ([2]; read-out: HGPRT-I Ki) was 120 nM and < 1000 nM and the Ki [3, 7] was 60 nM and < 1000 nM.

Work on `Nc1nc2c(ncn2CCN(CCN(CCP(=O)(O)O)CCP(=O)(O)O)CCP(=O)(O)O)c(=O)[nH]1` [compound 4] yielded a Ki ([1]; HGXPRT Ki) of 1860 ± 290 nM, a Ki ([2]; read-out: HGPRT-I Ki) of 290 ± 20 nM and a Ki [3, 7] of 310 ± 60 nM.

`N#CCCN(CCn1cnc2c(=O)[nH]c(N)nc21)CCP(=O)(O)O` [compound 1] gave a Ki ([1]; read-out: HGXPRT Ki) of 19900 ± 1750 nM, a Ki ([2]; read-out: HGPRT-I Ki) of 13500 ± 830 nM and a Ki [3, 7] of 14200 ± 610 nM.

In the case of `Nc1nc2c(ncn2CC(COCP(=O)(O)O)COCP(=O)(O)O)c(=O)[nH]1` [compound 6], the Ki ([1]; HGXPRT Ki) is reported as under 1000 nM, the Ki ([2]; HGPRT-I Ki) is reported as under 1000 nM and the Ki [3] is reported as 200 nM and < 1000 nM.

For `O=c1[nH]c(=O)c2nc[nH]c2[nH]1` [Xanthine], the Km [4] was “No activity detected”, the kcat [4] was “No activity detected” and the kcat ([4]; listed as xanthine) was “no activity”. For the same molecule, the Km [5] was “No activity detected”, the kcat [5] was “No activity detected” and the Km ([5]; listed as xanthine) was “no affinity”. The kcat ([5]; listed as xanthine) was “no activity”.

For `O=c1[nH]cnc2c1ncn2CCN(CCN(CCP(=O)(O)O)CCP(=O)(O)O)CCP(=O)(O)O` [compound 5], the Ki ([1]; read-out: HGXPRT Ki) was 10500 ± 1320 nM, the Ki ([2]; read-out: HGPRT-I Ki) was 2470 ± 440 nM and the Ki [3, 7] was 7020 ± 1620 nM.

`Nc1nc2c(ncn2CC(COCCP(=O)(O)O)OCCP(=O)(O)O)c(=O)[nH]1` (stereo not drawn) [compound 7] gave a Ki ([1]; read-out: HGXPRT Ki) of 770 ± 60 nM, a Ki ([2]; read-out: HGPRT-I Ki) of 890 ± 70 nM and a Ki [3, 7] of 1880 ± 170 nM.

`Nc1nc2nc[nH]c2c(=O)[nH]1` [Guanine] was tested, and the kcat [4] was 0.05 s⁻¹ and the kcat [6] was 1.36 s⁻¹.

For `Nc1nc2c(ncn2CCN(CCOCP(=O)(O)O)CCP(=O)(O)O)c(=O)[nH]1` [compound 2], the Ki ([1]; read-out: HGXPRT Ki) was 6540 nM, the Ki ([2]; read-out: HGPRT-I Ki) was 110 nM and the Ki [3, 7] was 250 ± 20 nM.

Source: publication PMC5843355, “Evaluation of the Trypanosoma brucei 6-oxopurine salvage pathway as a potential target for drug discovery” (PLoS Neglected Tropical Diseases, 2018)
